In patent US20140357512A1, “HISTONE DEACETYLASE (HDAC) BIOMARKERS IN MULTIPLE MYELOMA” (priority 2013, published 2014):

Test system: human myeloma cell line MM.1S
Test: SILAC acetylated-lysine peptide profiling, HDAC inhibitor vs DMSO (light/heavy ratio)
Type: cell-based
Excerpt: An embodiment of the invention comprises utilizing the SILAC method in order to quantitate changes in protein expression between two or more populations of cells. The SILAC method is a technique based on mass spectrometry that detects differences in protein abundance among samples using non-radioactive isotopic labeling. The SILAC method is known in the art, and described in detail in Ong et al., “Stable Isotope Labeling by Amino Acids in Cell Culture, SILAC, as a Simple and Accurate Approach to Expression Proteomics”, Molecular & Cellular Proteomics, vol. 1, pp. 376-386 (2002), which is incorporated herein by reference in its entirety.
Briefly, the SILAC method involves growing two populations of cells in cell culture. The first population of cells is grown in growth media containing normal amino acids (“normal media”). The second population of cells is grown in media lacking a standard essential amino acid (such as lysine), but is then supplemented with a non-radioactive, isotopically labeled form of that essential amino acid (such as lysine labeled with ^13C atoms, rather than normal ^12C atoms), which is called “heavy media”. When the two populations of cells are each growing in the medium, they incorporate the amino acids into all of their proteins. The growth of cells maintained in the heavy media is no different from that in normal media. All peptides containing the heavy amino acids are heavier than their normal counterparts. The cells from each of the two populations of cells are lysed. The lysates from each of the two cell populations are then combined. The combined cell lysates are then analyzed by mass spectrometry. Pairs of chemically identical peptides of different stable isotope composition can be differentiated in a mass spectrometer due to their difference in mass. The ratio of peak intensities in the mass spectrum for such peptide pairs reflects the abundance ratio for the two proteins.
This example describes SILAC studies that were performed to compare the effects of three different HDAC inhibitors (Compound A, Compound B, and tubastatin A) to a control on a human multiple myeloma cell line. The HDAC inhibitors were also compared amongst themselves to determine differences in their effects.
A human myeloma cell line MM.1S was grown using either ^12C (light) or ^13C (heavy) lysine containing culture medium. The “heavy” cells were treated with DMSO as the control, and the “light” cells were treated with a single HDAC inhibitor at 37° C. for 6 hours. The heavy and light cells were lysed, and the lysates were mixed in 1:1 ratio and digested with the protease trypsin. The acetylated lysine containing peptides (due to the action of the HDAC inhibitor) in the digested peptide pool were captured by a non-specific anti-acetylated lysine antibody cocktail (the antibodies identify both light and heavy acetylated peptides), and subjected to mass spectrometry analysis in order to identify thousands of individual peptides.
Thousands of peptides were identified in pairs (^12C and ^13C) due to their known mass differences. The amino acid sequence and quantitative ratio (Light/Heavy) of a given peptide in two differentially treated cell lysates were then determined and annotated with their possible protein (gene) sources.
As stated above, three HDAC inhibitors (Compound A, Compound B, and Tubastatin A) were used. Thus, the SILAC method was performed three times, with a different HDAC inhibitor compared to a control each time. Accordingly, there are three pairs of quantitative data in the table below, i.e., Compound A:DMSO, Compound B:DMSO, and Tubastatin A:DMSO. A cut-off of 1.30 fold of change (increase or decrease) was then used to determine “changed” or “+” in the table, and any peptides with a fold of change less than 1.3 fold were determined to be “unchanged” or “0” in the table. Those peptides that were not identified were marked as “NA” in the table. […]

Compound: CN1CCc2c(c3ccccc3n2Cc2ccc(C(=O)NO)cc2)C1 [Tub A]
- light to heavy ratio (L/H ratio) of acetylated peptide LLLFK(ac)TFSR (SEQ ID NO: 514) (Heterogeneous nuclear ribonucleoprotein U-like protein 2 [553], gene HNRNPUL2, inhibitor:DMSO): 0.00 log 2
- light to heavy ratio (L/H ratio), log 2 scale, acetylated peptide GSK(ac)K(ac)AINK (SEQ ID NO: 792) (Histone H2B type 1-M [16:17], gene HIST1H2BM, drug:DMSO): 0.00
- light to heavy ratio (L/H ratio), log 2 scale, acetylated peptide K(ac)AINK(ac)AQK (SEQ ID NO: 793) (Histone H2B type 1-M [17:21], gene HIST1H2BM, drug:DMSO): 0.00
- light to heavy ratio (L/H ratio) of acetylated peptide PEPAK(ac)SAPAPK(ac)K (SEQ ID NO: 309) (Histone H2B type 2-E [6:12], HIST2H2BE, drug:DMSO): 0.58 log 2
- light to heavy ratio (L/H ratio) of acetylated peptide AVTK(ac)AQK(ac)K (SEQ ID NO: 560) (Histone H2B type 2-E [21:24], gene HIST2H2BE, inhibitor:DMSO): 0.00 log 2
- light to heavy ratio (L/H ratio) of acetylated peptide K(ac)STGGK(ac)APR (SEQ ID NO: 310) (Histone H3.2 [10:15], HIST2H3D, HIST2H3A, HIST2H3C, drug:DMSO): 0.46 log 2
- light to heavy ratio (L/H ratio), log 2 scale, acetylated peptide K(ac)QLATK(ac)AAR (SEQ ID NO: 796) (Histone H3.2 [19:24], gene HIST2H3D, HIST2H3A, HIST2H3C, drug:DMSO): 0.00
- light to heavy ratio (L/H ratio) of acetylated peptide GK(ac)GGK(ac)GLGK (SEQ ID NO: 311) (Histone H4 [6:9], HIST2H4B, HIST1H4C and other H4 genes, drug:DMSO): 0.49 log 2
- light to heavy ratio (L/H ratio) of acetylated peptide GLGK(ac)GGAK(ac)R (SEQ ID NO: 312) (Histone H4 [13:17], HIST2H4B, HIST1H4C and other H4 genes, drug:DMSO): 0.49 log 2
- light to heavy ratio (L/H ratio) of acetylated peptide GLGK(ac)GGAKR (SEQ ID NO: 313) (Histone H4 [13], HIST2H4B, HIST1H4C and other H4 genes, drug:DMSO): −0.62 log 2
- light to heavy ratio (L/H ratio) of acetylated peptide DGLQNEK(ac)NIVSTPVK (SEQ ID NO: 268) (Hydroxymethylglutaryl-CoA lyase mitochondrial [48], HMGCL, drug:DMSO): 0.40 log 2
- light to heavy ratio (L/H ratio) of acetylated peptide K(ac)NINCSIEESFQR (SEQ ID NO: 594) (Hydroxymethylglutaryl-CoA lyase mitochondrial [137], gene HMGCL, inhibitor:DMSO): 0.00 log 2
- light to heavy ratio (L/H ratio) of acetylated peptide, log 2 scale (IFVGGLSPDTPEEK(ac)IR (SEQ ID NO: 166), Isoform 1 of Heterogeneous nuclear ribonucleoprotein D0 [197], HNRNPD): −0.78
- light to heavy ratio (L/H ratio) of acetylated peptide, log 2 scale (IGFGSFVDK(ac)TVLPFVSTVPSK (SEQ ID NO: 180), Isoform Long of Integrin beta-7 [199], ITGB7): −0.40
- light to heavy ratio (L/H ratio) of acetylated peptide, log 2 scale (IGIEIIK(ac)R (SEQ ID NO: 174), 60 kDa heat shock protein mitochondrial [469], HSPD1): −0.42
- L/H ratio of acetylated peptide YAASSYLSLTPEQWK(ac)SHR (SEQ ID NO: 56) (IGLV2-14, IGLC2 [208], log 2 scale, drug vs DMSO): −0.63
- light to heavy ratio (L/H ratio) of acetylated peptide, log 2 scale (IMK(ac)DLDQCR (SEQ ID NO: 217), Protein S100-A10 [57], S100A10): 0.72
- light to heavy ratio (L/H ratio) of acetylated peptide, log 2 scale (IQDK(ac)EGIPPDQQR (SEQ ID NO: 212), Ubiquitin-40S ribosomal protein S27a [33], RPS27A): −0.50
- light to heavy ratio (L/H ratio) of acetylated peptide, log 2 scale (ISK(ac)EVLAGR (SEQ ID NO: 167), Isoform Short of Heterogeneous nuclear ribonucleoprotein U [417], HNRNPU): −0.75
- L/H ratio of acetylated peptide (IVQK(ac)HPHTGDTKEEK (SEQ ID NO: 489), Death-associated protein 1 [29], DAP): 0.00 log 2
- light to heavy ratio (L/H ratio) of acetylated peptide, log 2 scale (IYFTDSSSK(ac)WQR (SEQ ID NO: 138), Isoform 1 of Adipocyte plasma membrane-associated protein [220], C20orf3): −0.59
- light to heavy ratio (L/H ratio), log 2 scale, acetylated peptide ADLIK(ac)QYGR (SEQ ID NO: 798) (Inactive hydroxysteroid dehydrogenase-like protein 1 [64], gene HSDL1, drug:DMSO): 0.00
- light to heavy ratio (L/H ratio) of acetylated peptide HAHGDQYK(ac)ATDFVADR (SEQ ID NO: 574) (Isocitrate dehydrogenase [NADP] mitochondrial [180], gene IDH2, inhibitor:DMSO): 0.00 log 2
- light to heavy ratio (L/H ratio) of acetylated peptide AGTFK(ac)MVFTPK (SEQ ID NO: 606) (Isocitrate dehydrogenase [NADP] mitochondrial [193], gene IDH2, inhibitor:DMSO): 0.00 log 2
- light to heavy ratio (L/H ratio) of acetylated peptide VVDSMDALDK(ac)VVQER (SEQ ID NO: 318) (Isoform 1 of 39S ribosomal protein L47 mitochondrial [144], MRPL47, drug:DMSO): 0.45 log 2
- light to heavy ratio (L/H ratio) of acetylated peptide ATVPK(ac)TEIR (SEQ ID NO: 272) (Isoform 1 of 40S ribosomal protein S24 [37], RPS24, drug:DMSO): −0.44 log 2
- light to heavy ratio (L/H ratio) of acetylated peptide AEEILEK(ac)GLK (SEQ ID NO: 547) (Isoform 1 of 60S ribosomal protein L11 [85], gene RPL11, inhibitor:DMSO): 0.00 log 2
- light to heavy ratio (L/H ratio) of acetylated peptide ISK(ac)EEAMR (SEQ ID NO: 299) (Isoform 1 of 60S ribosomal protein L11 [159], RPL11, drug:DMSO): −0.48 log 2
- light to heavy ratio (L/H ratio) of acetylated peptide AGLVDDFEK(ac)K (SEQ ID NO: 301) (Isoform 1 of ATP synthase subunit d mitochondrial [72], ATP5H, drug:DMSO): 0.66 log 2
- light to heavy ratio (L/H ratio) of acetylated peptide VPVPEDK(ac)YTAQVDAEEKEDVK (SEQ ID NO: 290) (Isoform 1 of ATP synthase subunit d mitochondrial [85], ATP5H, drug:DMSO): 0.50 log 2
- light to heavy ratio (L/H ratio) of acetylated peptide TLK(ac)ALEYVFK (SEQ ID NO: 516) (Isoform 1 of Dedicator of cytokinesis protein 2 [738], gene DOCK2, inhibitor:DMSO): 0.00 log 2
- light to heavy ratio (L/H ratio), log 2 scale, acetylated peptide ILSK(ac)LSEETK (SEQ ID NO: 759) (Isoform 1 of E3 UFM1-protein ligase 1 [614], gene UFL1, drug:DMSO): 0.00
- light to heavy ratio (L/H ratio) of acetylated peptide ELEK(ac)VCNPIITK (SEQ ID NO: 612) (Isoform 1 of Heat shock cognate 71 kDa protein [601], gene HSPA8, inhibitor:DMSO): 0.00 log 2
- light to heavy ratio (L/H ratio) of acetylated peptide TLVLSDK(ac)HSPQK (SEQ ID NO: 523) (Isoform 1 of Histone-lysine N-methyltransferase MLL3 [2809], gene MLL3, inhibitor:DMSO): 0.00 log 2
- light to heavy ratio (L/H ratio) of acetylated peptide VK(ac)NELFK (SEQ ID NO: 565) (Isoform 1 of Hydroxyacyl-coenzyme A dehydrogenase mitochondrial [127], gene HADH, inhibitor:DMSO): 0.00 log 2
- light to heavy ratio (L/H ratio) of acetylated peptide LVAENK(ac)FGK (SEQ ID NO: 296) (Isoform 1 of Hydroxyacyl-coenzyme A dehydrogenase mitochondrial [301], HADH, drug:DMSO): −0.43 log 2
- light to heavy ratio (L/H ratio) of acetylated peptide K(ac)SADTLWGIQK (SEQ ID NO: 316) (Isoform 1 of L-lactate dehydrogenase A chain [318], LDHA, drug:DMSO): 1.00 log 2
- light to heavy ratio (L/H ratio) of acetylated peptide FYK(ac)DVLEVGELAK (SEQ ID NO: 596) (Isoform 1 of N-alpha-acetyltransferase 50 NatE catalytic subunit [37], gene NAA50, inhibitor:DMSO): 0.00 log 2
- light to heavy ratio (L/H ratio), log 2 scale, acetylated peptide NLQEAEEWYK(ac)SK (SEQ ID NO: 767) (Isoform 1 of Peripherin [288], gene PRPH, drug:DMSO): 0.00
- light to heavy ratio (L/H ratio) of acetylated peptide LMK(ac)YLLEQLK (SEQ ID NO: 585) (Isoform 1 of Protein MB21D1 [414], gene MB21D1, inhibitor:DMSO): 0.00 log 2
- light to heavy ratio (L/H ratio) of acetylated peptide VLSK(ac)EFHLNESGDPSSK (SEQ ID NO: 294) (Isoform 1 of Protein SET [154], SET, drug:DMSO): −1.00 log 2
- light to heavy ratio (L/H ratio) of acetylated peptide GYAYVEFENPDEAEK(ac)ALK (SEQ ID NO: 349) (Isoform 1 of RNA-binding protein with serine-rich domain 1 [218], RNPS1, drug:DMSO): 0.00 log 2
- light to heavy ratio (L/H ratio), log 2 scale, acetylated peptide […](ac)TDQAQDVK (SEQ ID NO: 765) (Isoform 1 of Signal recognition particle 9 kDa protein [52], gene SRP9, drug:DMSO): 0.00
- light to heavy ratio (L/H ratio) of acetylated peptide LEMSYSK(ac)FK (SEQ ID NO: 304) (Isoform 1 of UDP-N-acetylglucosamine--dolichyl-phosphate N-acetylglucosaminephosphotransferase [320], DPAGT1, drug:DMSO): 0.48 log 2
